{"source": "patent US10053455B2", "about": "“Diazaspiroalkaneone-substituted oxazole derivatives as spleen tyrosine kinase inhibitors” (AB SCIENCE, priority 2014, dated 2018)", "key": {"[1]": {"target": "KIT D816V (Homo sapiens (Human), UniProt P10721, D816V)", "sequence (P10721 26-976 D816V)": "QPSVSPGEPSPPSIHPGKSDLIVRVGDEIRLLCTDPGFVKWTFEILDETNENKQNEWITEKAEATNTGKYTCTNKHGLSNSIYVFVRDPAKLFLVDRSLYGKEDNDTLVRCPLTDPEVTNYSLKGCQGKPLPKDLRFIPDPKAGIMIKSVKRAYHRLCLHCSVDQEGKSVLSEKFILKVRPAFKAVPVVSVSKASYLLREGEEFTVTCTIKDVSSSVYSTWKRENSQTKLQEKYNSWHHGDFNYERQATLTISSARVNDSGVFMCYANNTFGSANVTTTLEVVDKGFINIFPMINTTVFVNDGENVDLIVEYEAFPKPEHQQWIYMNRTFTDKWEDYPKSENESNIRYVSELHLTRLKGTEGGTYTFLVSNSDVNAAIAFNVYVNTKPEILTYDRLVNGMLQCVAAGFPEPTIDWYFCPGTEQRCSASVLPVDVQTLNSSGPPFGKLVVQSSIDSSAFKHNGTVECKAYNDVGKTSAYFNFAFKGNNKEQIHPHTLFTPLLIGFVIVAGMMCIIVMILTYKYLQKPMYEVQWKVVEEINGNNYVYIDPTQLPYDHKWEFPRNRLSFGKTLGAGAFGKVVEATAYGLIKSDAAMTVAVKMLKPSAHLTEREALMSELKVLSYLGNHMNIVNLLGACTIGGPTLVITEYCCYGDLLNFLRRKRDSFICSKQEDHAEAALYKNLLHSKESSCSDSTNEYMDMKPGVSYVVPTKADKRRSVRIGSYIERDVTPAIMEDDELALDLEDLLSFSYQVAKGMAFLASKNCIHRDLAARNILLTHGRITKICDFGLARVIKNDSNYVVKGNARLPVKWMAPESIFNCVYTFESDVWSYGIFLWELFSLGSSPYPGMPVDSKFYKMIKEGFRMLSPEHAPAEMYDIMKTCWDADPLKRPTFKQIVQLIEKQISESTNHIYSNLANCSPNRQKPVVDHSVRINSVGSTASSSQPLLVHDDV", "assay": "Cell-based proliferation assay on BaF3 model, KIT D816V", "description": "Cell-based proliferation and viability assay CellTiter-Bleue cell-based survival/proliferation assay (Promega G8080) was performed on BaF3 models.\nA total of 1.10^4 cells/well/50 μl were seeded in a 96-wells plate. Treatment was initiated by addition of a 2× drug solution of ½ serial dilutions ranging from 0 to 10 μM. Cells were grown for 48-72 h at 37° C. and then incubated with 10 μl/well of Promega CellTiter-Bleue reagent for 4 h at 37° C. The amount of formazan dye formed was quantified by its absorbance at 450 nm using a scanning multiwell spectrophotometer (POLARstar Omega, BMG labtech, France). A blank well without cells was used as a background control for the spectrophotometer and all assays were performed in duplicates and the experiments were repeated at least twice."}, "[2]": {"target": "VEGFR2 (Homo sapiens (Human), UniProt P35968)", "sequence (P35968 20-1356, species assumed)": "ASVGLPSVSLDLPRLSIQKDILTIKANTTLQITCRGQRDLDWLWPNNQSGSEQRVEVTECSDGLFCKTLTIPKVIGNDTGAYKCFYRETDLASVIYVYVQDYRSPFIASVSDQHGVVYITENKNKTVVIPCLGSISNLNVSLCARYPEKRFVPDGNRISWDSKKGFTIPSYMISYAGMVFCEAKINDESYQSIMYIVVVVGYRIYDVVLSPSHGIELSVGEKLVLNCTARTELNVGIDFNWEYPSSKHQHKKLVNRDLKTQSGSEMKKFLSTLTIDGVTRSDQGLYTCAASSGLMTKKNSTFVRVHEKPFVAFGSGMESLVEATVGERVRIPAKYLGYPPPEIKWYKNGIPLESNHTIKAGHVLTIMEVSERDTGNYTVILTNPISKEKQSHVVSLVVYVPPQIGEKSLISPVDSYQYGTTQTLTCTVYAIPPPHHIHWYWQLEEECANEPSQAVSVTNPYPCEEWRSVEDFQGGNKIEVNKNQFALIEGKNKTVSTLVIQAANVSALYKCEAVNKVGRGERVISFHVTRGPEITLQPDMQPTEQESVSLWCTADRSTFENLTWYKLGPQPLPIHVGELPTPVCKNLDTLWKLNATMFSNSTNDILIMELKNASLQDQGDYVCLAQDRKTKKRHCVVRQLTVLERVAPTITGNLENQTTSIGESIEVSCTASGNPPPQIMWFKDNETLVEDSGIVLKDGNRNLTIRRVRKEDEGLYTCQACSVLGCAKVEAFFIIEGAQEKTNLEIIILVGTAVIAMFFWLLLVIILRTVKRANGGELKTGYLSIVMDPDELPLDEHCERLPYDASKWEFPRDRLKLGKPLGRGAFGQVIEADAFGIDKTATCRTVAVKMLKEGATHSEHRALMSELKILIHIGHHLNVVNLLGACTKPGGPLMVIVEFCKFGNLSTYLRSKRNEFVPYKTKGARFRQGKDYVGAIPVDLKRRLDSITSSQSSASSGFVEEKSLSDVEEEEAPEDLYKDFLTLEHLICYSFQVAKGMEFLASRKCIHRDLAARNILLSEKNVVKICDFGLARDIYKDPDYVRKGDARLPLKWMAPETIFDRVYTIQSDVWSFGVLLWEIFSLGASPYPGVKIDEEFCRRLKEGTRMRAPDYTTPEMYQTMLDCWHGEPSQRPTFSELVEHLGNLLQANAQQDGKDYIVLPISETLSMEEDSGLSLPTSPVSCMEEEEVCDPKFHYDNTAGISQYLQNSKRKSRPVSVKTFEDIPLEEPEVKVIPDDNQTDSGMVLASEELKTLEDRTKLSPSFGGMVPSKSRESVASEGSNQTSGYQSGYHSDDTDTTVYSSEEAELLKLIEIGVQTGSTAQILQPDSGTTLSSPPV", "assay": "HTRF kinase assay, VEGFR2", "format": "biochemical", "settings": "enzymatic determination", "description": "(§1) Most of the kinases tested in this study were cloned, expressed and purified in the facilities of the inventors. They were expressed either as N-terminus hexahistidine-, hexahistidine-asparagine- or GST-tagged enzymes in a baculovirus or in a Colibacille expression system. Remaining enzymes (JAKs) were purchased from Millipore or Proqinase. For each enzyme, steady state kinetic parameters were determined and validated with known inhibitors.\n(§2) The analysis of the effect of compounds on kinase activity was assessed with the HTRF® KinEASE assay (Cisbio International), an immuno-assay based on the quantification of the level of phosphorylation of a biotinylated peptide substrate using anti-phospho-specific antibody labeled with Europium (Eu^3+) cryptate. This assay comprises two steps: —an enzymatic step, during which the peptide substrate, the kinase, ATP, Mg^2+ and/or Mn^2+ are incubated with varying concentration of drug (from 0 to 10 μM); —a detection step, at the end of the reaction (stopped by addition of EDTA which chelates Mg^2+), the antibody anti-phospho peptide-Eu^3+ (emission 620 nm) and streptavidin XL-665 (emission 665 nm) are added to the reaction mix. […] Results are expressed in delta fluorescence (DF) unit defined as follow DF %=[(ratio−ratio blank)/(ratio blank)]*100, where ratio=(665 nm/620 nm)*10^4. […]"}, "[3]": {"test_system": "murine model of asthma", "assay": "Mouse model of asthma: airway responsiveness (FlexiVent)", "format": "in vivo, Balb/c male mice", "settings": "ovalbumin-sensitized mice, PO twice daily", "description": "(§3) Balb/c male mice, 8 weeks old, were purchased from Janvier (Le Genest-Saint-Isle; FRANCE) and bred in the animal facility for 4 weeks. Drugs were dissolved in drinking solvent (80% water; 10% Tween 80 and 10% isopropanediol). It was aliquoted and stored at −20° C. Each mouse received drugs twice a day. The weight of animals was calculated before and after treatment.\n(§4) Mice, 9 weeks of age, were sensitized with 50 μg of ovalbumin (Sigma-Aldrich, Germany) adsorbed to 2 mg Al(OH)3 (Prolabo, France) and diluted in physiological saline (0.9% NaCl). Ovalbumin was injected intraperitoneally on days 1 and 7. Sensitization was followed by intranasal challenges with 10 μg of ovalbumin diluted in 0.9% NaCl, each day from day 18 to day 21. On days 17 to 21, animals treated with drugs received 100 μl of a solution at 15 mg/ml, at 7.5 mg/ml or at 3.75 mg/ml administered per os twice a day during 5 days. These treatments corresponded to concentration of 60 mg/mouse kg, 30 mg/mouse kg and 15 mg/mouse kg respectively.\nThe airway responsiveness was measured using the invasiveness FlexiVent® (SCIREQ) technique. […] The baseline values were measured after saline solution nebulization and airway hyperresponsiveness evaluated after nebulization of a 0.26M metacholine solution (50 mg/ml)."}, "[4]": {"test_system": "rat neonatal cardiac myocytes", "assay": "Intracellular ROS in rat cardiomyocytes (CM-H2DCFDA)", "format": "cell-based", "settings": "10 μM, 8 hours", "description": "2×10^3 human cardiomyocytes (Promocell C-12810) or 4×10^4 rat neonatal cardiac myocytes (R-CM-561 Lonza) were seeded per well of a 96-well plate (black wall for fluorimetry usage (655090 Greiner Bio one)) 24 hours before drug treatment. Treatment was initiated by addition of a drug solution for a 10 μM final concentration. Doxorubicin was used at 5 μM as positive control for the induction of ROS. After 8 hours treatment with drugs, cells were loaded with 10 μM of CM-H2DCFDA (C6827 Invitrogen) for 1 hour, followed by 2 washes in PBS. CM-H2DCFDA is a membrane permeable reagent that can be enzymatically converted to dichlorodihydrofluorescein (DCF) in the presence of ROS. Fluorescent DCF was detected using a fluorescence spectrophotometer (BMG Labtech) with excitation of 485 nm and emission of 560 nm. The results were expressed as a relative percent of DCF-fluorescence in control cells.\nMonitoring drug-induced increase in the production of reactive oxygen species (ROS) in cardiomyocyte may be important to predict the cardiotoxic side effects of a drug (Table 11). The production of ROS in human and rat cardiomyocytes was studied following 8 hours drug treatment at concentration of 10 μM. The results were expressed as a percent relative to the production of ROS induced by the cardiotoxic chemotherapeutic agent doxorubicin (100%)."}, "[5]": {"test_system": "murine model of asthma", "assay": "Mouse model of asthma: eosinophils recruitment in bronchio-alveolar lavage", "format": "in vivo, Balb/c male mice", "description": "as §3, §4\nBronchio-alveolar lavage (BAL) was performed after the animals were disconnected from the FlexiVent®. The airways were lavaged with 5 ml (10 times 0.5 ml) ice cold 0.9% NaCl 2.6 mM EDTA. BAL samples were centrifuged at 1200 rpm for 5 minutes at 4° C. Pellet cells were collected and erythrocytes lysed by adding 1.5 ml deionized water for 30 seconds. After neutralization with 0.5 ml of 0.6M KCl, cells were centrifuged at 1200 rpm for 5 minutes at 4° C. BAL samples were used to count the total cell number and to perform cytospins (shandon, Pontoise). Cell types were identified by morphological criteria after Hemacolor (Merck) staining.\nMice were sensitized and challenged with ovalbumin as described in protocol assays above. The mice were distributed in groups of 5-6 animals that were treated twice daily with 7.5 to 60 mg/Kg of anti-SYK/KIT drugs (PO)."}, "[6]": {"target": "Src (Homo sapiens (Human), UniProt P12931)", "sequence (P12931 whole entry, looked up, species assumed)": "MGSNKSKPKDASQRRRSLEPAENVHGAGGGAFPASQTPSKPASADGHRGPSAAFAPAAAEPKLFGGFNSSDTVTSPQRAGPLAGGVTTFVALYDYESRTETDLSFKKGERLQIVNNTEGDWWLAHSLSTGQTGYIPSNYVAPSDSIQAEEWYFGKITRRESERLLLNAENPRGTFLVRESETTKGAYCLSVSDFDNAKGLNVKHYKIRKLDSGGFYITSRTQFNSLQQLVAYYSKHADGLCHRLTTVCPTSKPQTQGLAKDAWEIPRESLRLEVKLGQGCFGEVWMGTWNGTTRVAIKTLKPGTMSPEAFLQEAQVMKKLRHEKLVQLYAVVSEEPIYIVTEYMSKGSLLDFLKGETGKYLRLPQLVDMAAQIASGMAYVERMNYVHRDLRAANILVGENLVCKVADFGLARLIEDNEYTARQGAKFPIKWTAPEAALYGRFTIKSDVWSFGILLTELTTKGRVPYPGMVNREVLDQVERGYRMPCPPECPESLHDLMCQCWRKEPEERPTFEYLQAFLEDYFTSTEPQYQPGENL", "assay": "HTRF kinase assay, Src", "format": "biochemical", "settings": "enzymatic determination", "description": "as §1, §2"}, "[7]": {"target": "Jak1 (Homo sapiens (Human), UniProt P23458)", "sequence (P23458 whole entry)": "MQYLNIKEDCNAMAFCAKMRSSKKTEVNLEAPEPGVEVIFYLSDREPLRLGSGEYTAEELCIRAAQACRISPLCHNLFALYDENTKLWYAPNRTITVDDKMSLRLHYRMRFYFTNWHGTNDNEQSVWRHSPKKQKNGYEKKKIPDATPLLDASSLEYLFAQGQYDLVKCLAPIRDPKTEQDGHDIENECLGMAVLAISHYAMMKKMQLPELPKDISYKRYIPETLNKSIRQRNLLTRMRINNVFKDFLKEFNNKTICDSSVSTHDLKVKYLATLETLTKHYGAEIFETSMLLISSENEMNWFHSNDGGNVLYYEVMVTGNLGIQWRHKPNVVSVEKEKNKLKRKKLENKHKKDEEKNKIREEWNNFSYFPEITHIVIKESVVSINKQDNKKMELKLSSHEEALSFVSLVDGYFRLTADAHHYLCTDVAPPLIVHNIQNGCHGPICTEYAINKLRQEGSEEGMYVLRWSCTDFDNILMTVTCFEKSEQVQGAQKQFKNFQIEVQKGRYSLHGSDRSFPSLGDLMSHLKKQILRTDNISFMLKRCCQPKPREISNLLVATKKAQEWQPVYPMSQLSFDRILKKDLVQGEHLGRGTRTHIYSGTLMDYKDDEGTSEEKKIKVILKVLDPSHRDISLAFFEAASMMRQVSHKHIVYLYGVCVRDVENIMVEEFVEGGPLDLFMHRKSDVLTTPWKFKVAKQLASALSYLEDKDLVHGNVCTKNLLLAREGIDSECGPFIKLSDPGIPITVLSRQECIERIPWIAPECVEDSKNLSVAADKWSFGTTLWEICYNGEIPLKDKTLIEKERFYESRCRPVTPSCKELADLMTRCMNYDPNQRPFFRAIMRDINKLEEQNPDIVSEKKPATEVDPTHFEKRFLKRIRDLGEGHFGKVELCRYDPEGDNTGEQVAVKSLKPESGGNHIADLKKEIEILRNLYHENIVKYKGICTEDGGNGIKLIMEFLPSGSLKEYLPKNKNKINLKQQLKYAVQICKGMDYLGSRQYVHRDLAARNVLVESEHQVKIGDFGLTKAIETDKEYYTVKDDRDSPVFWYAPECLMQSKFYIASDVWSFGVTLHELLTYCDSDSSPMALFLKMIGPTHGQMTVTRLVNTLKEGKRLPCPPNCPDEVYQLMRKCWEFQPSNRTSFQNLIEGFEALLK", "assay": "HTRF kinase assay, Jak1", "format": "biochemical", "settings": "enzymatic determination", "description": "as §1, §2"}}, "data": [{"smiles": "Cc1ccnc(Nc2cccc(-c3cnc(N4CCNC(=O)C45CC5)o3)c2)n1", "note": "[Compound 001, 4-{5-[3-(4-Methyl-pyrimidin-2-ylamino)-phenyl]-oxazol-2-yl}-4,7-diaza-spiro[2.5]octan-8-one]", "values": [{"measurement": "IC50", "setting": "[1]", "result": 10, "unit": "µM"}, {"measurement": "IC50", "setting": "[2]", "result": 20, "unit": "µM"}, {"measurement": "bronchial hyper-responsiveness", "setting": "[3]", "result": "reduced bronchial hyper-responsiveness in a dose-dependent manner"}, {"measurement": "ROS production, activity relative to doxorubicine (100%), Rat-CM", "setting": "[4]", "result": 0, "unit": "%"}, {"measurement": "Percentage of Eosinophils recruitment in Bronchio-alveolar lavage (BAL)", "setting": "[5]; Experiment #2, 2 × 15 mg/kg/day PO", "result": "−14", "unit": "%"}, {"measurement": "Percentage of Eosinophils recruitment in Bronchio-alveolar lavage (BAL)", "setting": "[5]; Experiment #2, 2 × 30 mg/kg/day PO", "result": "−47", "unit": "%"}, {"measurement": "IC50", "setting": "[6]", "result": 2.6, "unit": "µM"}, {"measurement": "IC50", "setting": "[7]", "result": 3.4, "unit": "µM"}]}]}
